Laboratory results from patent US20140296281A1, “METHODS FOR SCREENING A BRCA1 LOSS-OF-FUNCTION IN A SUBJECT SUFFERING FROM A CANCER” (INSERM (INSTITUT NATIONAL DE LA SANTE ET DE LA RECHERCHE …, priority 2011, published 2014).
“Also recorded” adds a separate entry of the source.

Assays:
BRCA1 = conditions: mouse mammary cells (Antonova and Mueller 2008); cited from earlier work
GR P-Ser211 = assay: Western blot of GR P-Ser211; type: cell-based, human
Description: […] Control cells were treated with ethanol as vehicle (1:1000). Treatments were carried out in a phenol red free medium containing 5% dextran-charcoal-stripped serum for a period of 24 h in MCF-7 and MDA-MB231 and 48 h in HBE cells.
(§1) These five antibodies were then detected with an anti-rabbit HRP-conjugated secondary antibody (1:5000) (Santa Cruz, Heidelberg, Germany). Actin expression was analyzed with the human anti-β-actin mouse monoclonal primary antibody (1:20 000) (β-actin (AC-15); A5441, Sigma-Aldrich, St Quentin Fallavier, France), and then detected with an anti-mouse HRP-conjugated secondary antibody (1:2000) (Sigma-Aldrich, St Quentin Fallavier, France).

[1] = molecular target: MAPK phosphorylated p38 (P-p38) (Homo sapiens, UniProt Q16539); assay: Western blot of phosphorylated MAPK p38; type: cell-based; conditions: MCF-7, in presence of SB
Chain of MAPK phosphorylated p38 (P-p38) (Q16539 whole entry): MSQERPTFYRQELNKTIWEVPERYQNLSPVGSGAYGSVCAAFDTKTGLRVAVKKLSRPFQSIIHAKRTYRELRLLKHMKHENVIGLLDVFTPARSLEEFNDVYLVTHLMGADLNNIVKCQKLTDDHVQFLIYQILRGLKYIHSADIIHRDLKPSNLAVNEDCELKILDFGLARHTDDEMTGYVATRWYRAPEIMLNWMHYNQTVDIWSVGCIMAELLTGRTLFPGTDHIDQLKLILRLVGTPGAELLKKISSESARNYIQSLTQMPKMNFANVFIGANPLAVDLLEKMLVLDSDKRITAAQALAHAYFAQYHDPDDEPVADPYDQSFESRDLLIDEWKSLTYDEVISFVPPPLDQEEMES
Description: as §1

SMILES	BRCA1 expression (BRCA1)	decrease of GR P-Ser211 level (GR P-Ser211; MCF-7, DEX+SB compared to DEX treatment alone)	GR P-Ser211 level (GR P-Ser211; MCF-7, cells exposed to SB compared to basal conditions, even with BRCA1 overexpression)	levels of P-p38 [1]
C[C@]12CCC(=O)C=C1CC[C@@H]1[C@@H]2[C@@H](O)C[C@@]2(C)[C@H]1CC[C@]2(O)C(=O)CO [hydrocortisone]	repress; also recorded: decrease			
Oc1ccc(-c2nc(-c3ccncc3)c(-c3ccc(F)cc3)[nH]2)cc1 [SB]		also observed	constant decrease	increased
